Five compounds from patent publication EP4810052A2, “HCRHR2 SELECTIVE POLYPEPTIDES” (Gubra A/S, priority 2023, dated 2026) can be followed below.

SMILES strings stand for the structures. Like-named read-outs stand apart in the source and are kept apart here. Starred links: 1 amine or outer side, 2 acyl side, 3 side chain; linkers in the order of their positions; H or OH if unused. Non-standard residues stand in square brackets, D forms with d. Residues, ends and D or L forms follow the SMILES beside them. Groups on a side chain read outwards from the residue. *: point of attachment. C20 diacid = O=C(O)CCCCCCCCCCCCCCCCCCC(=O)*; Pro(cis-4-F) = O=C(O)[C@@H]1C[C@H](F)CN1; γGlu = O=C(O)[C@H](CCC(=O)[*:2])N[*:1]; NMeI = CC[C@H](C)[C@H](NC)C(=O)O; Nle = CCCC[C@H](N)C(=O)O; AEEA = NCCOCCOCC(=O)O; Aib = CC(C)(N)C(=O)O

For one assay, the target named is T1, hCRHR2 (Homo sapiens, UniProt Q13324).
T1 sequence (Q13324 1-411): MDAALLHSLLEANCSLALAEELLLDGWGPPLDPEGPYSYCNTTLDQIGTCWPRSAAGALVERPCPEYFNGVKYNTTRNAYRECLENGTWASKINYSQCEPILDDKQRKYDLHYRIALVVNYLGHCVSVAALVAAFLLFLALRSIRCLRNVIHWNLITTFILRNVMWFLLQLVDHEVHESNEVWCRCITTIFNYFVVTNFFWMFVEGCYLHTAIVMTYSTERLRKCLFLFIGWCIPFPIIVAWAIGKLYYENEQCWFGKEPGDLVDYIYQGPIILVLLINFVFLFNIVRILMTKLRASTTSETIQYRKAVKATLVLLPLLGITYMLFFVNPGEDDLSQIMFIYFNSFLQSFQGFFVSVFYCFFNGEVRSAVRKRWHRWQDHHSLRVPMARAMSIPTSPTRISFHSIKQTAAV
The assay can be described thus: HTRF cAMP assay, determination of hCRHR2 potency (peptide libraries 5 conc., purified peptides 11 conc.). It is filed as cell-based. In a few lines: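 Agonist peptides are added to suspended, freshly thawed CHO-K1 cells that stably carry the human receptor. Intracellular cAMP competes with d2-cAMP for a cryptate-tagged antibody, lowering the FRET signal. A variable-slope sigmoid curve is fitted to obtain EC50.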

The next assay addresses T2, hCRHR1 (Homo sapiens, UniProt P34998).
T2 sequence (P34998 24-415): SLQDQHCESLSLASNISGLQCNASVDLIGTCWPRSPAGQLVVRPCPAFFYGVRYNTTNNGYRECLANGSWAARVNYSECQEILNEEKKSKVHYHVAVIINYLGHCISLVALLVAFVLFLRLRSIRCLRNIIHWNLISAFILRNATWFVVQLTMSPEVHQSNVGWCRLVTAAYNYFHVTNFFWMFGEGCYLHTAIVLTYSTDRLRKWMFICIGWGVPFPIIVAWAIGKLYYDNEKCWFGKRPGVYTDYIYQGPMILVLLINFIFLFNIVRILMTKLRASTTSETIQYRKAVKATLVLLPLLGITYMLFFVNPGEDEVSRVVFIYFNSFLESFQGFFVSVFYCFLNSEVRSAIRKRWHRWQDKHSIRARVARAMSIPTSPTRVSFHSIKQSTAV
The assay can be described thus: HTRF cAMP assay, determination of hCRHR1 potency (peptide libraries 5 conc., purified peptides 11 conc.). It is filed as cell-based. The source says: HTRF (CisBio) cAMP assay: The assay technology has thoroughly been described in the CisBio HTRF cAMP assay Kit manual (# 62AM4PEC). Briefly, time resolved fluorescence technic was applied to measure cAMP. This technic is based on a competitive immunoassay using cryptate-labelled anti-cAMP antibody and d2-labeled cAMP. In the absence of cellular cAMP, the anti-cAMP cryptate conjugate may get into proximity to cAMP-d2 conjugate and energy (FRET) can be transferred from cryptate to d2. CHO-K1 cells stably expressing the human corticotropin-releasing hormone receptor 1 (Eurofins/DiscoverX Cat #95-0047C2 hCRHR1 stable monoclonal cell lines) were used as cells in suspension, brought to life from frozen cell stocks immediately before assay performance. […] Concentration-response evaluation of compounds was performed with 5 concentrations of agonist peptides and EC50 values were calculated by nonlinear regression using sigmoid concentration-response with variable slope. Concentration-response evaluation of compounds was performed with 11 concentrations of agonist peptides and EC50 values were calculated by nonlinear regression using sigmoid concentration-response with variable slope.

Where [1] appears, read: library peptides, matched molecular pairs L vs Nle in position X^38, read-out: Potency hCRHR2 pEC50 (converted).
The mark [2] stands for this setting: library peptides, matched molecular pairs L vs Nle in position X^38, read-out: Potency hCRHR1 pEC50 (converted).
Where [3] appears, read: Table 4, library peptides having X^38 = Nle, read-out: hCRHR2 pEC50 (converted).
The mark [4] stands for this setting: Table 4, library peptides having X^38 = Nle, read-out: hCRHR1 pEC50 (converted).

With `CCCC[C@H](NC(=O)[C@@H](NC(=O)[C@H](CCC(=O)O)NC(=O)[C@H](C)NC(=O)[C@H](CC(N)=O)NC(=O)[C@@H](NC(=O)[C@H](CCCCNC(=O)COCCOCCNC(=O)COCCOCCNC(=O)CC[C@H](NC(=O)CC[C@H](NC(=O)CCCCCCCCCCCCCCCCCCC(=O)O)C(=O)O)C(=O)O)NC(=O)[C@H](C)NC(=O)[C@H](CCC(N)=O)NC(=O)[C@H](CCC(=O)O)NC(=O)[C@H](CCCNC(=N)N)NC(=O)[C@H](C)NC(=O)[C@H](C)NC(=O)[C@H](CCCNC(=N)N)NC(=O)[C@H](C)NC(=O)[C@H](CCCNC(=N)N)NC(=O)[C@H](C)NC(=O)[C@H](CCC(N)=O)NC(=O)[C@@H](NC(=O)[C@H](CC(C)C)NC(=O)[C@H](CC(C)C)NC(=O)[C@@H](NC(=O)[C@H](CCC(N)=O)NC(=O)[C@H](CC(C)C)NC(=O)[C@H](CC(C)C)NC(=O)CNC(=O)[C@@H](NC(=O)[C@@H]1C[C@H](F)CN1C(=O)[C@@H](NC(=O)[C@H](CC(=O)O)NC(=O)[C@H](CC(C)C)NC(=O)[C@H](CO)NC(=O)[C@H](CC(C)C)NC(=O)[C@@H](NC(=O)[C@@H](N)[C@@H](C)CC)C(C)C)C(C)C)[C@@H](C)CC)[C@@H](C)CC)[C@@H](C)O)[C@@H](C)O)[C@@H](C)CC)C(=O)N[C@@H](C)C(=O)N[C@@H](CCC(=O)O)C(=O)N[C@H](C(N)=O)C(C)C` [compound 81] (H-IVLSLDV[Pro(cis-4-F)]IGLLQILLTQARARAAREQAK([AEEA-AEEA-γGlu-γGlu-C20 diacid])TNAEI[Nle]AEV-NH2), the EC50 was 0.2 nM at hCRHR2 (setting [1]) and 398 µM on hCRHR1 (setting [2]).

In the case of `CCCC[C@H](NC(=O)[C@@H](NC(=O)[C@H](CCC(=O)O)NC(=O)C(C)(C)NC(=O)[C@H](CC(N)=O)NC(=O)[C@@H](NC(=O)[C@H](CCCCNC(=O)COCCOCCNC(=O)COCCOCCNC(=O)CC[C@H](NC(=O)CC[C@H](NC(=O)CCCCCCCCCCCCCCCCCCC(=O)O)C(=O)O)C(=O)O)NC(=O)[C@H](C)NC(=O)[C@H](CCC(N)=O)NC(=O)[C@H](CCC(=O)O)NC(=O)[C@H](CCCNC(=N)N)NC(=O)[C@H](C)NC(=O)[C@H](C)NC(=O)[C@H](CCCNC(=N)N)NC(=O)[C@H](C)NC(=O)[C@H](CCCNC(=N)N)NC(=O)[C@H](C)NC(=O)[C@H](CCC(N)=O)NC(=O)CNC(=O)[C@H](CC(C)C)NC(=O)[C@H](CC(C)C)NC(=O)[C@@H](NC(=O)[C@H](CCC(N)=O)NC(=O)[C@H](CC(C)C)NC(=O)[C@H](CC(C)C)NC(=O)CNC(=O)[C@@H](NC(=O)[C@@H]1CCCN1C(=O)[C@@H](NC(=O)[C@H](CC(=O)O)NC(=O)[C@H](CC(C)C)NC(=O)[C@H](CO)NC(=O)[C@H](CC(C)C)NC(=O)[C@@H](NC(=O)[C@@H](NC)[C@@H](C)CC)C(C)C)C(C)C)[C@@H](C)CC)[C@@H](C)CC)[C@@H](C)O)[C@@H](C)CC)C(=O)N[C@@H](C)C(=O)N[C@@H](CCC(=O)O)C(=O)N[C@H](C(N)=O)C(C)C` [compound 204] (H-[NMeI]VLSLDVPIGLLQILLGQARARAAREQAK([AEEA-AEEA-γGlu-γGlu-C20 diacid])TN[Aib]EI[Nle]AEV-NH2), the EC50 on hCRHR2 (setting [3]) is 0.0251 nM; on hCRHR1 (setting [4]), 1 µM.

Take `CC[C@H](C)[C@H](N)C(=O)N[C@H](C(=O)N[C@@H](CC(C)C)C(=O)N[C@@H](CO)C(=O)N[C@@H](CC(C)C)C(=O)N[C@@H](CC(=O)O)C(=O)N[C@H](C(=O)N1CCC[C@H]1C(=O)N[C@H](C(=O)NCC(=O)N[C@@H](CC(C)C)C(=O)N[C@@H](CC(C)C)C(=O)N[C@@H](CCC(N)=O)C(=O)N[C@H](C(=O)N[C@@H](CC(C)C)C(=O)N[C@@H](CC(C)C)C(=O)N[C@@H](CCC(=O)O)C(=O)N[C@@H](CCC(N)=O)C(=O)N[C@@H](C)C(=O)N[C@@H](CCCNC(=N)N)C(=O)N[C@@H](C)C(=O)N[C@@H](CCCNC(=N)N)C(=O)N[C@@H](C)C(=O)N[C@@H](CCC(N)=O)C(=O)N[C@@H](CCCNC(=N)N)C(=O)N[C@@H](CCC(=O)O)C(=O)N[C@@H](CCC(N)=O)C(=O)N[C@@H](C)C(=O)N[C@@H](CCCCNC(=O)COCCOCCNC(=O)COCCOCCNC(=O)CC[C@H](NC(=O)CC[C@H](NC(=O)CCCCCCCCCCCCCCCCCCC(=O)O)C(=O)O)C(=O)O)C(=O)N[C@H](C(=O)N[C@@H](CC(N)=O)C(=O)N[C@@H](C)C(=O)N[C@@H](CCC(=O)O)C(=O)N[C@H](C(=O)N[C@@H](CC(C)C)C(=O)N[C@@H](C)C(=O)N[C@@H](CCC(=O)O)C(=O)N[C@H](C(N)=O)C(C)C)[C@@H](C)CC)[C@@H](C)O)[C@@H](C)CC)[C@@H](C)CC)C(C)C)C(C)C` [compound 56] (H-IVLSLDVPIGLLQILLEQARARAQREQAK([AEEA-AEEA-γGlu-γGlu-C20 diacid])TNAEILAEV-NH2): the EC50 was 0.398 nM at hCRHR2 (setting [1]) and 3.16 µM at hCRHR1 (setting [2]).

`CCCC[C@H](NC(=O)[C@@H](NC(=O)[C@H](CCC(=O)O)NC(=O)[C@H](C)NC(=O)[C@H](CC(N)=O)NC(=O)[C@@H](NC(=O)[C@H](CCCCNC(=O)COCCOCCNC(=O)COCCOCCNC(=O)CC[C@H](NC(=O)CC[C@H](NC(=O)CCCCCCCCCCCCCCCCCCC(=O)O)C(=O)O)C(=O)O)NC(=O)[C@H](C)NC(=O)[C@H](CCC(=O)O)NC(=O)[C@H](CCC(=O)O)NC(=O)[C@H](CCCNC(=N)N)NC(=O)[C@H](CCC(N)=O)NC(=O)[C@H](CO)NC(=O)[C@H](CCCNC(=N)N)NC(=O)[C@H](C)NC(=O)[C@H](CCCNC(=N)N)NC(=O)[C@H](C)NC(=O)[C@H](CCC(N)=O)NC(=O)[C@H](CCC(=O)O)NC(=O)[C@H](CC(C)C)NC(=O)[C@H](CC(C)C)NC(=O)[C@@H](NC(=O)[C@H](CCC(N)=O)NC(=O)[C@H](CC(C)C)NC(=O)[C@H](CC(C)C)NC(=O)CNC(=O)[C@@H](NC(=O)[C@@H]1CCCN1C(=O)[C@@H](NC(=O)[C@H](CC(=O)O)NC(=O)[C@H](CC(C)C)NC(=O)[C@H](CO)NC(=O)[C@H](CC(C)C)NC(=O)[C@@H](NC(=O)[C@@H](N)[C@@H](C)CC)C(C)C)C(C)C)[C@@H](C)CC)[C@@H](C)CC)[C@@H](C)O)[C@@H](C)CC)C(=O)N[C@@H](C)C(=O)N[C@@H](CCC(=O)O)C(=O)N[C@H](C(N)=O)C(C)C` [compound 71] (H-IVLSLDVPIGLLQILLEQARARSQREEAK([AEEA-AEEA-γGlu-γGlu-C20 diacid])TNAEI[Nle]AEV-NH2): the EC50 was 0.631 nM on hCRHR2 (setting [1]) and 100 µM on hCRHR1 (setting [2]).

Consider `CCCC[C@H](NC(=O)[C@@H](NC(=O)[C@H](CCC(=O)O)NC(=O)[C@H](C)NC(=O)[C@H](CC(N)=O)NC(=O)C(C)(C)NC(=O)[C@H](CCCCNC(=O)COCCOCCNC(=O)COCCOCCNC(=O)CC[C@H](NC(=O)CC[C@H](NC(=O)CCCCCCCCCCCCCCCCCCC(=O)O)C(=O)O)C(=O)O)NC(=O)[C@H](C)NC(=O)[C@H](CCC(N)=O)NC(=O)[C@H](CCC(=O)O)NC(=O)[C@H](CCCNC(=N)N)NC(=O)[C@H](C)NC(=O)[C@H](C)NC(=O)[C@H](CCCNC(=N)N)NC(=O)[C@H](C)NC(=O)[C@H](CCCNC(=N)N)NC(=O)[C@H](C)NC(=O)[C@H](CCC(N)=O)NC(=O)[C@H](CCC(=O)O)NC(=O)[C@H](CC(C)C)NC(=O)[C@H](CC(C)C)NC(=O)[C@@H](NC(=O)[C@H](CCC(N)=O)NC(=O)[C@H](CC(C)C)NC(=O)[C@H](CC(C)C)NC(=O)CNC(=O)[C@@H](NC(=O)[C@@H]1CCCN1C(=O)[C@@H](NC(=O)[C@H](CC(=O)O)NC(=O)[C@H](CC(C)C)NC(=O)[C@H](CO)NC(=O)[C@H](CC(C)C)NC(=O)[C@@H](NC(=O)[C@@H](NC)[C@@H](C)CC)C(C)C)C(C)C)[C@@H](C)CC)[C@@H](C)CC)[C@@H](C)CC)C(=O)N[C@@H](C)C(=O)N[C@@H](CCC(=O)O)C(=O)N[C@H](C(N)=O)C(C)C` [compound 124] (H-[NMeI]VLSLDVPIGLLQILLEQARARAAREQAK([AEEA-AEEA-γGlu-γGlu-C20 diacid])[Aib]NAEI[Nle]AEV-NH2), for which the values for the EC50 on hCRHR2 (setting [3]) and at hCRHR1 (setting [4]) were 0.00631 nM and 0.251 µM, respectively. Also, the “Selectivity hCRHR1 EC50/hCRHR2 EC50” value at hCRHR2 (Table 4, ratio, or comparison with Ref. 1 (SEQ ID NO: 205) / Ref. 2 (SEQ ID NO: 124)) was 40378.
